In patent US20230173087A1, “ANTIBODY DRUG CONJUGATES WITH CLEAVABLE LINKERS” (Heidelberg Pharma Research GmbH, priority 2019, published 2023):

Assays:
[1] = system: SKBR-3 (breast cancer) cells; test: Cytotoxicity, chemiluminescent BrdU-ELISA incorporation assay on SKBR-3 cells; type: cell-based; settings: as antibody conjugate
Protocol: Cytotoxic activity of Trastuzumab (Anti-Her2neu-specific antibody)-amatoxin conjugates was evaluated in vitro on HER2-positive tumor cell lines SKBR-3 (breast cancer), NCI-N87 (gastric cancer), and JIMT-1 (breast cancer) using a chemiluminescent BrdU-ELISA incorporation assay (Roche).

RNA polymerase II = RNA polymerase II (Homo sapiens, UniProt P24928+P30876); settings: read-out: KD of complex between amanitin and RNA polymerase II; cited from earlier work

CC[C@H](C)[C@@H]1NC(=O)CNC(=O)C2Cc3c([nH]c4cc(O)ccc34)[S@+]([O-])CC(NC(=O)CNC1=O)C(=O)NC(CC(N)=O)C(=O)N1CC(O)CC1C(=O)N[C@@H]([C@@H](C)[C@@H]1COC(c3ccc(NC(=O)[C@H](C)NC(=O)C(NC(=O)CCN4C(=O)C=CC4=O)C(C)C)cc3)O1)C(=O)N2 (stereo partly drawn) [HDP 30.2684, α-Amanitin-(BMP-Val-Ala-4-amino-benzylidenacetal)]
effectiveness in vitro compared to HDP 30.1699 [1]: as effective as HDP 30.1699

amanitin
Kd (RNA polymerase II): 3 nM
